Source: paper PMC11193793 (Scientific Reports, 2024)
Where two headings read alike, the source gives them in different places.

How the values were obtained:
[1] = molecular target: T1, ovine COX-1 (Ovis aries, UniProt P05979); test: biochemical
T1 sequence (P05979 25-600): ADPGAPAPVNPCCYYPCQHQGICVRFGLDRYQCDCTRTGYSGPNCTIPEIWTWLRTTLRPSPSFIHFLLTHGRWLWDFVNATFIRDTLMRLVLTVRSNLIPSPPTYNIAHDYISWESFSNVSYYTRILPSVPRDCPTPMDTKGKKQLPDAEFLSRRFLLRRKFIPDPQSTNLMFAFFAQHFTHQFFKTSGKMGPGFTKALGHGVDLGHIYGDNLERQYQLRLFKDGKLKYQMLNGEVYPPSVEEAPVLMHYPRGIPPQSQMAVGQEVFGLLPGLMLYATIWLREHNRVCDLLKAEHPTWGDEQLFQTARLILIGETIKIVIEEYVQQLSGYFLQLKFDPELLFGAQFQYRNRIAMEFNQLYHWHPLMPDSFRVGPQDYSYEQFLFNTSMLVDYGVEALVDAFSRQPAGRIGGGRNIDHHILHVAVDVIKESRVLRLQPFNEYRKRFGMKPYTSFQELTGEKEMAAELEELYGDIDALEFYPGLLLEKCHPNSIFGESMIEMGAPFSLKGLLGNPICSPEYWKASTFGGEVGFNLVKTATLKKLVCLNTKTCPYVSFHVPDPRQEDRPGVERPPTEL
Description: (§1) The full method is provided in the Supplementary materials.
(§2) Serial dilutions (100, 10, 1, 0.1, and 0.01 µg/mL) of the F. solani extract and the isolated metabolites were prepared and solvated in DMSO, then estimated for their abilities to inhibit the synthesis of prostaglandin using the kits for screening test for COX inhibitors (BioVision, Inc., USA, Mountain View, Catalog # K548-100 and Catalog # K547-100, for COX- […]
(§3) The investigational methodology was carried out following the provider’s recommendations. Arachidonic acid is being converted into prostaglandin (PGH2) by the cyclooxygenase enzyme (COX). During the reduction, the PGF2α formed in PGH2 via stannous chloride was evaluated via ELISA (enzyme-linked immunoassay). This bioassay is based on the competition among an antibody; PGspecific and a cholinesterase conjugate; PG-acetyl. The developed (antibody-PG) was combined with an acetylcholinesterase substrate included in Ellman's reagent. Each sample (20 µL) was used, (10 µL) heme, and (10 µL) enzyme, were combined to the reaction buffer solution (160 µL) formed of (2 mM phenol and 5 mM ethylenediamine tetra acetate (EDTA) in 0.1 M Tris-HCl, pH 8), followed by incubation of the mixture in a water bath at 37 °C for 10 min. Subsequently, starting the COX reaction was done by adding 10 µL of arachidonic acid, with a final concentration of […], to the reaction mixture.
(§4) Later, the COX reactions were ended after 2 min by adding saturated stannous chloride (30 µL), then inoculate for 5 min at room temperature. Afterwards, the PGF2α level was measured using ELISA. Subsequent move to a 96-well plate, inoculate the samples at room temperature for 18 h, then wash the plate to eliminate any residual reagents, followed by the addition of Ellman’s reagent (200 µL) which contains an acetylcholinesterase substrate, and incubation at room temperature for 60 to 90 min. A spectrophotometer with a microplate reader at 410 nm was used to measure the produced color at 410 […]
(§5) The data mean values from three measurements were used to calculate IC50 values. […]

[2] = molecular target: T2, recombinant human COX-2 (Homo sapiens, UniProt P35354); test: biochemical; conditions: for Selectivity index (SI): COX-2 selectivity from COX-1 and COX-2 IC50
T2 sequence (P35354 18-604): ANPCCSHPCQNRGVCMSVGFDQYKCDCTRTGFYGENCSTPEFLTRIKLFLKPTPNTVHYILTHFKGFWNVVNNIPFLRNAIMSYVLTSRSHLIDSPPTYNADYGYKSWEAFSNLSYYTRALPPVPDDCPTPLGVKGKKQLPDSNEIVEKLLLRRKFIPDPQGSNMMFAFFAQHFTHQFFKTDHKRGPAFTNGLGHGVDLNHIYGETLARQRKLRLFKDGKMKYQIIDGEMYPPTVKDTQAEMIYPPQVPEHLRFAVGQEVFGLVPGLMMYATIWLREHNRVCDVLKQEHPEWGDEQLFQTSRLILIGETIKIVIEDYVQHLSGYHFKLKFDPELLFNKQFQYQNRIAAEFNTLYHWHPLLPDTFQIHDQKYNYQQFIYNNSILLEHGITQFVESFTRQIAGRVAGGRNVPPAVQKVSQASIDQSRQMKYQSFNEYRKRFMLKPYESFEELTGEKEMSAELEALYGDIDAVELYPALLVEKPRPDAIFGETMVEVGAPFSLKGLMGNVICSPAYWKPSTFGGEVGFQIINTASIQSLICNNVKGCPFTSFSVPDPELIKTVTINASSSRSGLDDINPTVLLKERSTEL
Description: as §1, §2, §3, §4, §5

[3] = molecular target: tyrosinase enzyme; test: Tyrosinase inhibitory assay (L-DOPA substrate, BioVision kit); format: biochemical; conditions: mean ± SEM, triplicate
Text: The anti-tyrosinase capacities of the F. solani extract together with the six isolated metabolites were investigated via evaluating their inhibitory activities against tyrosinase enzyme. The full method is provided in the Supplementary materials. […]
Tyrosinase inhibitory assay
The anti-tyrosinase capacities of the F. solani extract together with the six isolated metabolites were investigated via evaluating their inhibitory activities against tyrosinase enzyme using the kits for screening test of tyrosinase enzyme inhibition (BioVision, Inc., USA, Mountain View, Catalog # K575-100).
First, all samples were dissolved using DMSO (reference drug, EtOAc extract and the isolated compounds) preparing different concentrations. The assay of tyrosinase inhibition was done as previously reported 3. The mixture of assay composed of test solution (1900 μL) in (0.1 M) buffer phosphate pH 6.8 and freshly prepared enzyme solution (100 μL) which is composed of 15 U/mL in (0.1 M) buffer phosphate pH 6.8. The 30 min. of room temperature after pre-incubation, the reaction was started by adding substrate solution (1000 μL) which composed of L-DOPA (1.5 Mm) in buffer phosphate (0.1 M) pH 6.8. After 7 minutes of room temperature incubation, the mixture of the assay was analyzed for absorbance at […]
510 nm. […] The activity of tyrosinase inhibition
(The activity of the enzyme together with the tested samples). The mean values of the data from three measurements were used to calculate IC50 values.

[4] = mean ± SEM, triplicate, read-out: IC50 COX-2
[5] = mean ± SEM, triplicate, read-out: IC50 COX-1

Structure (SMILES) | IC50 [1] [µM] | Selectivity index (SI) [2] | IC50 [2, 4] [µM] | IC50 [3] [µM] | IC50 [2] [µM] | IC50 [1, 5] [µM] | IC50 ([3]; listed as 4-hydroxybenzaldehyde) [µM] | IC50 ([3]; listed as 4-hydroxybenzaldehyde (1)) [µM] | IC50 ([3]; listed as malic acid) [µM]
CCCCc1ccc(C(=O)O)nc1 [Fusaric acid (6), fusaric acid] | 3.86 ± 0.05 | 0.8 | 4.81 ± 0.14 | 13.4 ± 0.27 |  |  |  |  | 
OCCc1ccc(O)cc1 [Tyrosol (3), tyrosol] | 23.9 ± 0.38 | 4.49 |  | 11.3 ± 0.24 | 5.31 ± 0.15 |  |  |  | 
O=C(O)c1ccc(O)cc1 [4-Hydroxybenzoic acid (2), 4-hydroxybenzoic acid] |  |  | 28.4 ± 0.76 | 25.4 ± 0.53 |  | 44.5 ± 0.92 |  |  | 
O=Cc1ccc(O)cc1 [4-Hydroxybenzaldehyde (1), 4-hydroxybenzaldehyde] |  | 2.9 | 8.87 ± 0.26 |  |  | 25.7 ± 0.55 | > 50 | 70.6 ± 1.49 | 
O=C(O)CC(O)C(=O)O (stereo not drawn) [Malic acid (5), malic acid] | 51 ± 0.86 |  | 10.4 ± 0.3 | 87.5 ± 1.84 |  |  |  |  | > 50
O=C(O)CCCCCCCC(=O)O [Azelaic acid (4), azelaic acid] |  | 5.24 | 2.21 ± 0.06 | 8.75 ± 0.18 |  | 11.6 ± 0.29 |  |  | 
